Experimental data as given in BindingDB's records for patent US20240025892 (The General Hospital, 2024).

Molecular target: Serine/threonine-protein kinase SIK2 (Homo sapiens, UniProt Q9H0K1)
Experiment: In Vitro SIK2 Kinase Assay
Method: Assays were performed in base reaction buffer (20 mM Hepes (pH 7.5), 10 mM MgCl2, 1 mM EGTA, 0.02% Brij35, 0.02 mg/mL BSA, 0.1 mM Na3VO4, 2 mM DTT, 1% DMSO). Compounds were dissolved in 100% DMSO in a 10 mM stock. Serial dilution was conducted by Integra Viaflo Assist in DMSO. […] The substrate used was pAMARA at a concentration of 0.2 mg/mL. Kinase assays were supplemented with 2 mM Mn2+, and 1 μM ATP was added. Assays were performed for 20 minutes at room temperature, after which time 33P-ATP (10 μCi/μL) was added followed by incubation for another 120 minutes at room temperature. Thereafter, radioactivity incorporated into the […] peptide substrate was detected by filter-binding method. Kinase activity data were expressed as the percent remaining kinase activity in test samples compared to DMSO reactions. IC50 values and curve fits were obtained using Prism (GraphPad Software).

Chain of Serine/threonine-protein kinase SIK2 (Q9H0K1 whole entry): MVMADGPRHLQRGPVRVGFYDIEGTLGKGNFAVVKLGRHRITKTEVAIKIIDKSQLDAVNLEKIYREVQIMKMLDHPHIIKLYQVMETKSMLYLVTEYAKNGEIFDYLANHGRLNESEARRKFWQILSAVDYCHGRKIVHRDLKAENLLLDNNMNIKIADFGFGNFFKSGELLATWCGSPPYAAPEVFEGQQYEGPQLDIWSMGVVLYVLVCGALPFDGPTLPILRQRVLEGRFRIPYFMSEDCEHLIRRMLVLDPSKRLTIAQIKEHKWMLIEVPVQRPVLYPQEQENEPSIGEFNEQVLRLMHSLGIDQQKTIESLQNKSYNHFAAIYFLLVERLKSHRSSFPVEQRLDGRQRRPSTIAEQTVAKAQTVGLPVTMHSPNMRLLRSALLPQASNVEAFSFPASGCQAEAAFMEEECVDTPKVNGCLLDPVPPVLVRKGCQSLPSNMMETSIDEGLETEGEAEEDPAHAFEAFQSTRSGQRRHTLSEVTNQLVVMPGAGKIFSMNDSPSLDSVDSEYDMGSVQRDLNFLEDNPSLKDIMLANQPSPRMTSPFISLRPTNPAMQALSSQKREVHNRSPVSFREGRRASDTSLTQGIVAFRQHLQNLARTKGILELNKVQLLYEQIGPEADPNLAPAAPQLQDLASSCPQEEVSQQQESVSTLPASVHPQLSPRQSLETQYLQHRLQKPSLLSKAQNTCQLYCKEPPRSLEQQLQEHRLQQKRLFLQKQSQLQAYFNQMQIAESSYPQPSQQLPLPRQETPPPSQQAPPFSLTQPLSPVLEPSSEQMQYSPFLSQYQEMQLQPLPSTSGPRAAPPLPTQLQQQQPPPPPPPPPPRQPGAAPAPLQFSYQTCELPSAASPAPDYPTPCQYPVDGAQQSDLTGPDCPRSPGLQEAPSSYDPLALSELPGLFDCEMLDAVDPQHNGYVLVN

Compound: N#Cc1ccc(-n2cnc3cc(C(=O)NCc4cccnc4)ccc32)cc1 [US20240025892, Example 32]
- IC50: 0.148 µM
